# Data from patent US20190381017A1, “Compositions Comprising Serdexmethylphenidate Conjugates And Methods Of Use Thereof” (KemPharm, Inc., priority 2018, published 2019).
# “And” between values parts separate entries of the source, which are not always exact repeats. Identical values can stand only once. Counter-ions that a name gives are not always drawn.
# Key:
# [1] = test system: healthy, nondependent, recreational stimulant users with intranasal insufflation experience; test: Treatment-emergent adverse events, intranasal study (Example 5, Table 54)
# Method: The study consisted of a Screening Period, an in-clinic Drug Discrimination Phase, a Treatment Phase, and a Follow-Up Visit.
# All subjects were required to fast for at least 8 hours prior to each dose of study drug until approximately 4 hours after each dose. Abuse potential measures and pharmacokinetic samples were collected at different times after the administration of study drug. Subjects who successfully completed the Drug Discrimination Phase and who qualified for the Treatment Phase remained as inpatients to enter the Treatment Phase.
# [2] = test system: healthy, nondependent, recreational stimulant users with intranasal insufflation experience; test: Intranasal abuse potential, VAS pharmacodynamic scores (Example 5); format: in vivo, human
# Method: Subjects who successfully completed the Screening Period returned to the clinic to complete the Drug Discrimination Phase. The Drug Discrimination Test was performed to ensure that subjects can differentiate between the effects of a single dose of d-methylphenidate hydrochloride and placebo, administered intranasally. Subjects who successfully completed the Drug Discrimination Phase remained as inpatients to enter the Treatment Phase. The Drug Discrimination Phase was a double-blind, intranasal, single-dose, 2-treatment, 2-period, 2-sequence, randomized, crossover design.
# The placebo dose consisted of 80 mg of microcrystalline cellulose to create the same volume.
# On dosing days in the Treatment Phase, blood samples were collected for the measurement of the plasma concentrations of SDX, d-methylphenidate (d-MPH), l-methylphenidate (l-MPH) and ritalinic acid at predose and at 0.25, 0.5, 0.75, 1, 1.5, 2, 3, 4, 5, 6, 7, 8, 9, 10, 12, 16, 24, 36, and 48 hours±5 minutes after each dose of study drug. […] All VAS pharmacodynamic assessments except Take Drug Again and Overall Drug Liking were performed at 0.25, 0.5, 0.75, 1, 1.5, 2, 3, 4, 5, 6, 7, 8, 10, 12, 24 hours±5 minutes postdose. In addition, predose assessments of Feeling High, and Drowsiness/Alertness were collected. The Take Drug Again and Overall Drug Liking VAS assessments were performed at 12 and 24 hours±5 minutes postdose.
# [3] = d-MPH HCl 40 mg (N = 46), SDX Cl 80 mg (N = 46)
# [4] = d-MPH HCl 40 mg vs SDX Cl 80 mg
# [5] = SDX Cl 80 mg, d-MPH HCl 40 mg, 12 hours, bipolar VAS
# [6] = SDX Cl 80 mg, d-MPH HCl 40 mg, 24 hours, bipolar VAS
# [7] = SDX Cl 80 mg, d-MPH HCl 40 mg, bipolar VAS
# [8] = SDX Cl 80 mg, d-MPH HCl 40 mg, unipolar VAS
structure (smiles),measurement,setting,value
"COC(=O)[C@H](c1ccccc1)[C@H]1CCCCN1 [d-methylphenidate hydrochloride, d-threo-methylphenidate hydrochloride]",TEAE: Abdominal distension,[1]; [3],0 n (%) [E]
same,TEAE: Agitation,[1]; [3],0 n (%) [E]
same,TEAE: Arthralgia,[1]; [3],0 n (%) [E]
same,TEAE: Catheter site haematoma,[1]; [3],0 n (%) [E]
same,TEAE: Catheter site swelling,[1]; [3],0 n (%) [E]
same,TEAE: Chest pain,[1]; [3],0 n (%) [E]
same,TEAE: Claustrophobia,[1]; [3],0 n (%) [E]
same,TEAE: Cough,[1]; [3],0 n (%) [E]
same,TEAE: Dizziness,[1]; [3],0 n (%) [E]
same,TEAE: Dysgeusia,[1]; [3],0 n (%) [E]
same,TEAE: Dyspepsia,[1]; [3],0 n (%) [E]
same,TEAE: Ecchymosis (skin discoloration),[1]; [3],0 n (%) [E]
same,TEAE: Epistaxis (nosebleed),[1]; [3],0 n (%) [E]
same,TEAE: Eye pain,[1]; [3],0 n (%) [E]
same,TEAE: Feeling of relaxation,[1]; [3],0 n (%) [E]
same,TEAE: Head discomfort,[1]; [3],0 n (%) [E]
same,TEAE: Infections and infestations,[1]; [3],0 n (%) [E]
same,TEAE: Irritability,[1]; [3],0 n (%) [E]
same,TEAE: Lacrimation increased,[1]; [3],0 n (%) [E]
same,TEAE: Nasal dryness,[1]; [3],0 n (%) [E]
same,TEAE: Pharyngitis,[1]; [3],0 n (%) [E]
same,TEAE: Phlebitis superficial,[1]; [3],0 n (%) [E]
same,TEAE: Pyrexia,[1]; [3],0 n (%) [E]
same,TEAE: Rhinorrhoea (runny nose),[1]; [3],0 n (%) [E]
same,TEAE: Sneezing,[1]; [3],0 n (%) [E]
same,TEAE: Upper-airway cough syndrome,[1]; [3],0 n (%) [E]
same,TEAE: Vomiting,[1]; [3],0 n (%) [E]
same,"typical stimulant-related adverse events (euphoric mood, hypervigilance, cardiac palpitations, tachycardia), frequency vs intranasal SDX Cl",[1]; [4],occurred more often
same,Mean difference Any Effect Emax vs placebo,"[2]; SDX Cl 80 mg, d-MPH HCl 40 mg",88.6
same,Mean difference Ease of Nasal Insufflation Emax vs placebo,"[2]; SDX Cl 80 mg, d-MPH HCl 40 mg",11.3
same,Mean difference Feeling Drowsy/Alert Emax vs placebo,"[2]; SDX Cl 80 mg, d-MPH HCl 40 mg",42.3
same,Mean difference Feeling High Emax vs placebo,"[2]; SDX Cl 80 mg, d-MPH HCl 40 mg",85.2
same,Mean difference Good Effects Emax vs placebo,"[2]; SDX Cl 80 mg, d-MPH HCl 40 mg",90.0
same,"Mean difference Overall Drug Liking vs placebo, 24 hours","[2]; SDX Cl 80 mg, d-MPH HCl 40 mg",26.1
same,"Mean difference Take Drug Again vs placebo, 12 hours","[2]; SDX Cl 80 mg, d-MPH HCl 40 mg",29.1
same,"Mean difference Take Drug Again vs placebo, 24 hours","[2]; SDX Cl 80 mg, d-MPH HCl 40 mg",28.3
same,"Mean difference Take Drug Again vs placebo, Emax","[2]; SDX Cl 80 mg, d-MPH HCl 40 mg",31.1
same,Median difference Bad Effects Emax vs placebo,"[2]; SDX Cl 80 mg, d-MPH HCl 40 mg",10.5
same,Mean Overall Drug Liking,[2]; [5],79.6
same,Mean Take Drug Again,[2]; [5],78.2
same,Median Overall Drug Liking,[2]; [5],87
same,Median Take Drug Again,[2]; [5],91
same,Mean Overall Drug Liking,[2]; [6],76.3
same,Mean Take Drug Again,[2]; [6],77.4
same,Median Overall Drug Liking,[2]; [6],82
same,Median Take Drug Again,[2]; [6],94
same,Drug Liking Emax (median),[2]; [7],100
same,Feeling Drowsy/Alert Emax (mean),[2]; [7],93.4
same,Feeling Drowsy/Alert Emax (median),[2]; [7],100
same,Overall Drug Liking Emax (mean),[2]; [7],81.0
same,Overall Drug Liking Emax (median),[2]; [7],90
same,Take Drug Again Emax (mean),[2]; [7],80.3
same,Take Drug Again Emax (median),[2]; [7],95
same,Drug Liking Emax (mean),"[2]; SDX Cl 80 mg, d-MPH HCl 40 mg, bipolar VAS, hydrochloride",93 and 93.2
same,Any Effect Emax (mean),[2]; [8],89.2
same,Any Effect Emax (median),[2]; [8],100
same,Bad Effects Emax (mean),[2]; [8],18.6
same,Bad Effects Emax (median),[2]; [8],2
same,Ease of Nasal Insufflation (mean),[2]; [8],18.1
same,Ease of Nasal Insufflation (median),[2]; [8],7
same,Feeling High Emax (mean),[2]; [8],88.0
same,Feeling High Emax (median),[2]; [8],97
same,Good Effects Emax (mean),[2]; [8],90.6
same,Good Effects Emax (median),[2]; [8],97
same,Median difference Drug Liking Emax vs placebo,[2]; d-MPH HCl 40 mg,45
same,"Median difference Overall Drug Liking vs placebo, 12 hours",[2]; d-MPH HCl 40 mg,33.5
same,"Median difference Overall Drug Liking vs placebo, Emax",[2]; d-MPH HCl 40 mg,35
same,Mean difference Any Effect Emax,[2]; [4],39.8
same,Mean difference Drug Liking Emax,[2]; [4],22.3
same,Mean difference Ease of Nasal Insufflation Emax,[2]; [4],-47.7
same,Mean difference Feeling Drowsy/Alert Emax,[2]; [4],22.2
same,Mean difference Feeling High Emax,[2]; [4],44.5
same,Mean difference Good Effects Emax,[2]; [4],45.7
same,"Mean difference Overall Drug Liking, 12 hours",[2]; [4],19.2
same,"Mean difference Overall Drug Liking, 24 hours",[2]; [4],17.3
same,"Mean difference Overall Drug Liking, Emax",[2]; [4],19.3
same,"Mean difference Take Drug Again, 12 hours",[2]; [4],21.5
same,"Mean difference Take Drug Again, 24 hours",[2]; [4],21.5
same,"Mean difference Take Drug Again, Emax",[2]; [4],20.3
same,Median difference Bad Effects Emax,[2]; [4],0
